# Laboratory results: the supplement of paper PMC10307832
# Legend:
# Experiment in all cases: relative viability (nuclei count vs DMSO), 5 days (fraction); higher = more cells survive
# KIN001-266 = compound: CCN1CCC(CC1)N2C=C(N=N2)CNC3=CC4=C(C(=CN=C4C(=C3)Cl)C#N)NC5=CC(=C(C=C5)F)Cl [KIN001-266]
# Procedure, shortened: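 Five library-drug doses spaced by √10 were pinned onto vehicle-anchored 1536-well plates of lung cancer cell lines that had been kept overnight at 37 °C. Cells went 5 days without medium change, then were fixed, permeabilised and Hoechst-stained together, imaged at 4× and counted by MetaXpress. Viability is the ratio of treated-well to vehicle-well nuclei, taken as a median over plates. Plates required control CV below 25% and at least one doubling.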
# KIN001-266 + Foretinib = compound: CCN1CCC(CC1)N2C=C(N=N2)CNC3=CC4=C(C(=CN=C4C(=C3)Cl)C#N)NC5=CC(=C(C=C5)F)Cl [KIN001-266] + COc1cc2c(Oc3ccc(NC(=O)C4(C(=O)Nc5ccc(F)cc5)CC4)cc3F)ccnc2cc1OCCCN1CCOCC1 [Foretinib] (partner 0.25 µM)
# Procedure, shortened: (§1)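 After 5 days of treatment, lung cancer cells in 1536-well plates were fixed and stained in a single step (final 0.05% Triton X-100, 1% formaldehyde, 1 ug/ml Hoechst) and their nuclei counted on 4× images. Treatment had been applied by pin tool the day after seeding as one drug alone or as a fixed anchor-drug dose with five library-drug doses (not always all listed) in √10 steps. Relative viability is the nuclei count of treated wells divided by that of vehicle wells, and values are medians of duplicate plates.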
# KIN001-266 + Pictilisib = compound: CCN1CCC(CC1)N2C=C(N=N2)CNC3=CC4=C(C(=CN=C4C(=C3)Cl)C#N)NC5=CC(=C(C=C5)F)Cl [KIN001-266] + CS(=O)(=O)N1CCN(Cc2cc3nc(-c4cccc5[nH]ncc45)nc(N4CCOCC4)c3s2)CC1 [Pictilisib] (partner 1 µM)
# Procedure, shortened: as §1
# KIN001-266 + Olaparib = compound: CCN1CCC(CC1)N2C=C(N=N2)CNC3=CC4=C(C(=CN=C4C(=C3)Cl)C#N)NC5=CC(=C(C=C5)F)Cl [KIN001-266] + O=C(c1cc(Cc2n[nH]c(=O)c3ccccc23)ccc1F)N1CCN(C(=O)C2CC2)CC1 [Olaparib] (partner 8 µM)
# Procedure, shortened: as §1
# KIN001-266 + Lapatinib = compound: CCN1CCC(CC1)N2C=C(N=N2)CNC3=CC4=C(C(=CN=C4C(=C3)Cl)C#N)NC5=CC(=C(C=C5)F)Cl [KIN001-266] + CS(=O)(=O)CCNCc1ccc(-c2ccc3ncnc(Nc4ccc(OCc5cccc(F)c5)c(Cl)c4)c3c2)o1 [Lapatinib] (partner 2 µM)
# Procedure, shortened: as §1
# KIN001-266 + Linsitinib = compound: CCN1CCC(CC1)N2C=C(N=N2)CNC3=CC4=C(C(=CN=C4C(=C3)Cl)C#N)NC5=CC(=C(C=C5)F)Cl [KIN001-266] + C[C@]1(O)C[C@@H](c2nc(-c3ccc4ccc(-c5ccccc5)nc4c3)c3c(N)nccn32)C1 [Linsitinib] (partner 1 µM)
# Procedure, shortened: as §1
# KIN001-266 + Crizotinib = compound: CCN1CCC(CC1)N2C=C(N=N2)CNC3=CC4=C(C(=CN=C4C(=C3)Cl)C#N)NC5=CC(=C(C=C5)F)Cl [KIN001-266] + C[C@@H](Oc1cc(-c2cnn(C3CCNCC3)c2)cnc1N)c1c(Cl)ccc(F)c1Cl [Crizotinib] (partner 1 µM)
# Procedure, shortened: as §1
# KIN001-266 + Bortezomib = compound: CCN1CCC(CC1)N2C=C(N=N2)CNC3=CC4=C(C(=CN=C4C(=C3)Cl)C#N)NC5=CC(=C(C=C5)F)Cl [KIN001-266] + CC(C)C[C@H](NC(=O)[C@H](Cc1ccccc1)NC(=O)c1cnccn1)B(O)O [Bortezomib] (partner 0.002 µM)
# Procedure, shortened: as §1
# KIN001-266 + Alpelisib = compound: CCN1CCC(CC1)N2C=C(N=N2)CNC3=CC4=C(C(=CN=C4C(=C3)Cl)C#N)NC5=CC(=C(C=C5)F)Cl [KIN001-266] + Cc1nc(NC(=O)N2CCC[C@H]2C(N)=O)sc1-c1ccnc(C(C)(C)C(F)(F)F)c1 [Alpelisib] (partner 2 µM)
# Procedure, shortened: as §1
# KIN001-266 + Navitoclax = compound: CCN1CCC(CC1)N2C=C(N=N2)CNC3=CC4=C(C(=CN=C4C(=C3)Cl)C#N)NC5=CC(=C(C=C5)F)Cl [KIN001-266] + CC1(C)CCC(c2ccc(Cl)cc2)=C(CN2CCN(c3ccc(C(=O)NS(=O)(=O)c4ccc(N[C@H](CCN5CCOCC5)CSc5ccccc5)c(S(=O)(=O)C(F)(F)F)c4)cc3)CC2)C1 [Navitoclax] (partner 0.5 µM)
# Procedure, shortened: as §1
cell line,measurement,setting,value
NCI-H1299,relative viability,KIN001-266; 0.08 µM,0.987
same,relative viability,KIN001-266; 0.253 µM,0.996
same,relative viability,KIN001-266; 0.8 µM,1
same,relative viability,KIN001-266; 2.53 µM,0.928
same,relative viability,KIN001-266; 8 µM,0.869
same,relative viability,KIN001-266 + Foretinib; first compound 0.08 µM,1.06
same,relative viability,KIN001-266 + Foretinib; first compound 0.253 µM,1.1
same,relative viability,KIN001-266 + Foretinib; first compound 0.8 µM,1.05
same,relative viability,KIN001-266 + Foretinib; first compound 2.53 µM,0.994
same,relative viability,KIN001-266 + Foretinib; first compound 8 µM,0.964
same,relative viability,KIN001-266 + Pictilisib; first compound 0.08 µM,0.98
same,relative viability,KIN001-266 + Pictilisib; first compound 0.253 µM,0.754
same,relative viability,KIN001-266 + Pictilisib; first compound 0.8 µM,0.893
same,relative viability,KIN001-266 + Pictilisib; first compound 2.53 µM,0.75
same,relative viability,KIN001-266 + Pictilisib; first compound 8 µM,0.424
same,relative viability,KIN001-266 + Olaparib; first compound 0.08 µM,0.941
same,relative viability,KIN001-266 + Olaparib; first compound 0.253 µM,1.03
same,relative viability,KIN001-266 + Olaparib; first compound 0.8 µM,0.933
same,relative viability,KIN001-266 + Olaparib; first compound 2.53 µM,0.859
same,relative viability,KIN001-266 + Olaparib; first compound 8 µM,0.775
same,relative viability,KIN001-266 + Lapatinib; first compound 0.08 µM,0.918
same,relative viability,KIN001-266 + Lapatinib; first compound 0.253 µM,0.959
same,relative viability,KIN001-266 + Lapatinib; first compound 0.8 µM,0.902
same,relative viability,KIN001-266 + Lapatinib; first compound 2.53 µM,0.854
same,relative viability,KIN001-266 + Lapatinib; first compound 8 µM,0.855
same,relative viability,KIN001-266 + Linsitinib; first compound 0.08 µM,0.955
same,relative viability,KIN001-266 + Linsitinib; first compound 0.253 µM,0.984
same,relative viability,KIN001-266 + Linsitinib; first compound 0.8 µM,1
same,relative viability,KIN001-266 + Linsitinib; first compound 2.53 µM,0.946
same,relative viability,KIN001-266 + Linsitinib; first compound 8 µM,0.899
same,relative viability,KIN001-266 + Crizotinib; first compound 0.08 µM,0.946
same,relative viability,KIN001-266 + Crizotinib; first compound 0.253 µM,0.921
same,relative viability,KIN001-266 + Crizotinib; first compound 0.8 µM,0.941
same,relative viability,KIN001-266 + Crizotinib; first compound 2.53 µM,0.87
same,relative viability,KIN001-266 + Crizotinib; first compound 8 µM,0.817
same,relative viability,KIN001-266 + Bortezomib; first compound 0.08 µM,1.02
same,relative viability,KIN001-266 + Bortezomib; first compound 0.253 µM,1.01
same,relative viability,KIN001-266 + Bortezomib; first compound 0.8 µM,0.984
same,relative viability,KIN001-266 + Bortezomib; first compound 2.53 µM,0.962
same,relative viability,KIN001-266 + Bortezomib; first compound 8 µM,0.882
same,relative viability,KIN001-266 + Alpelisib; first compound 0.08 µM,1.04
same,relative viability,KIN001-266 + Alpelisib; first compound 0.253 µM,1.05
same,relative viability,KIN001-266 + Alpelisib; first compound 0.8 µM,0.548
same,relative viability,KIN001-266 + Alpelisib; first compound 2.53 µM,0.975
same,relative viability,KIN001-266 + Alpelisib; first compound 8 µM,1.01
same,relative viability,KIN001-266 + Navitoclax; first compound 0.08 µM,1.04
same,relative viability,KIN001-266 + Navitoclax; first compound 0.253 µM,1.04
same,relative viability,KIN001-266 + Navitoclax; first compound 0.8 µM,0.995
same,relative viability,KIN001-266 + Navitoclax; first compound 2.53 µM,1.01
same,relative viability,KIN001-266 + Navitoclax; first compound 8 µM,0.897
